Experiment [1] is described as follows: Collagen protection activity of the compound assessed as residual collagen level after 180 mins by Sirius red colorimetric assay.
Experiment [2] can be described thus: Collagen protection activity of the compound assessed as residual collagen level at 10 uM after 180 mins by Sirius red colorimetric assay.
Experiment [3] in a line: Collagen protection activity of the compound assessed as residual collagen level at 1 uM after 180 mins by Sirius red colorimetric assay.
Experiment [4] is described as follows: Collagen protection activity of the compound assessed as residual collagen level at 0.1 uM after 180 mins by Sirius red colorimetric assay.

Active and inactive are the calls of the source. The calls are words filed in the database; no cut-off is given here.

For `COC(=O)C[C@@]1(C)[C@H]2C(=O)C[C@@H]3C(=O)C=C(C)C[C@H]3[C@]2(C)C=C2N3C[C@H]4C[C@H](C)C[C@]3(CC[C@]21C)O4`, the result in experiment [1] was inactive.

On to `CC1=CC(=O)CCC1`, for which the outcome in experiment [1] was inactive.

In the case of `C[C@H]1C[C@@H]2CN3[C@](CC[C@@]4(C)[C@]5(C)CCC[C@]34OC(=O)C5)(C1)O2`, the Activity in experiment [2] is 47.8%; in experiment [1] it was “Dose-dependent effect”; in experiment [3], 46.6%; in experiment [4] it was 40%.

With `CC1=CC(=O)[C@H]2CC(=O)[C@H]3[C@@](C)(C[C@@]45OC(=O)C[C@]3(C)[C@]4(C)CC[C@]34C[C@@H](C)C[C@H](CN35)O4)[C@@H]2C1`, the Activity in experiment [2] was determined as 45%; in experiment [3], 40.4%.

The values above are taken from ChEMBL document CHEMBL3102700, “Truncated norzoanthamine exhibiting similar collagen protection activity, toward a promising anti-osteoporotic drug” (Bioorg Med Chem Lett, 2014).
